Test results from patent US20200179312A1, “ANALOGUES OF CYSTEAMINE AS THERAPEUTIC AGENTS FOR CYSTIC FIBROSIS” (I.E.R.F.C. EUROPEAN INSTITUTE FOR CYSTIC FIBROSIS RESEARCH, priority 2018, published 2020).

Tests used:
F508delCFTR = F508delCFTR (Homo sapiens, UniProt P13569, DEL508-508); assay: SPQ assay in CFBE41o- cells transfected with F508delCFTR; type: cell-based; design: expressed in transfected cells; host or cells: CFBE41o- cells
Description: The compounds of formula I have marked effects on CFTR function. A representative number of compounds of formula I (Compounds IE1-IE4; Table I) were tested in comparison to cysteamine and amifostine through SPQ assay in F508delCFTR homozygous bronchial epithelial cell lines (CFBE41o-) transfected with F508delCFTR (FIG. 1) and in ex vivo in nasal cells collected by nasal brushing from CF patients (FIGS. 2A and B). Cell lines experiments. CFBE41l- and 16HBE14o-cells were cultured in Minimum Essential Medium (MEM) with Earle's salt, 200 mM L-Glutamine, 10% FBS and penicillin/streptomycin. CFBE41o-cells were transfected with AF508-CFTR at 37° C. and incubated for 18 h with cysteamine (250 μM) or different concentration of IE1.

TG2 = molecular target: T1, TG2 (Homo sapiens, UniProt P21980); assay: Inhibition of the PDI activity of TG2; type: biochemical
T1 sequence (P21980 1-687): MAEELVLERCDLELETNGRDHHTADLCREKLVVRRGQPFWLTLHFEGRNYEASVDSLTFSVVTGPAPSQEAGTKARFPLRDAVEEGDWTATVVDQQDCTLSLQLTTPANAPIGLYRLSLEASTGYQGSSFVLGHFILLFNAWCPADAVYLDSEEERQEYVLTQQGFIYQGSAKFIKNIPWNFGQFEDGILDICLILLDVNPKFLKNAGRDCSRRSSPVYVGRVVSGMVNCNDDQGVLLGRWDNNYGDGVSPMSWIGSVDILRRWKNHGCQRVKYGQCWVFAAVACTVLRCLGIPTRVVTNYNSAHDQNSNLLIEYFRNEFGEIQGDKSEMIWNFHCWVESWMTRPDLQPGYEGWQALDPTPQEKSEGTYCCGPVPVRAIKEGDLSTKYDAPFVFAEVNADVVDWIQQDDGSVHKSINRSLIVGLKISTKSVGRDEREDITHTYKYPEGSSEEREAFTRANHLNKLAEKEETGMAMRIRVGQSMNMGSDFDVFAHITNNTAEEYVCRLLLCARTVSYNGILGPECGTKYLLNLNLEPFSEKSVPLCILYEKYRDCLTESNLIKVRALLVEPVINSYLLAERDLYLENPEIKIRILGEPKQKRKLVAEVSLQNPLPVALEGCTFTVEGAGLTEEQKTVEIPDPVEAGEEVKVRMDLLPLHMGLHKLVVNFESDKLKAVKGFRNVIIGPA

CFTR = molecular target: T2, CFTR (Mus musculus, UniProt P26361, DEL508-508); assay: Ussing chamber CFTR function in CftrF508del mice; type: in vivo
T2 construct: the Ussing chamber experiments (on small intestinal tissues); from tissue; host or cells: small intestine (Ussing chamber); lung and small intestine homogenates (immunoblot) of CftrF508del mice
T2 sequence (P26361 with tags, fused parts or gaps DEL508-508): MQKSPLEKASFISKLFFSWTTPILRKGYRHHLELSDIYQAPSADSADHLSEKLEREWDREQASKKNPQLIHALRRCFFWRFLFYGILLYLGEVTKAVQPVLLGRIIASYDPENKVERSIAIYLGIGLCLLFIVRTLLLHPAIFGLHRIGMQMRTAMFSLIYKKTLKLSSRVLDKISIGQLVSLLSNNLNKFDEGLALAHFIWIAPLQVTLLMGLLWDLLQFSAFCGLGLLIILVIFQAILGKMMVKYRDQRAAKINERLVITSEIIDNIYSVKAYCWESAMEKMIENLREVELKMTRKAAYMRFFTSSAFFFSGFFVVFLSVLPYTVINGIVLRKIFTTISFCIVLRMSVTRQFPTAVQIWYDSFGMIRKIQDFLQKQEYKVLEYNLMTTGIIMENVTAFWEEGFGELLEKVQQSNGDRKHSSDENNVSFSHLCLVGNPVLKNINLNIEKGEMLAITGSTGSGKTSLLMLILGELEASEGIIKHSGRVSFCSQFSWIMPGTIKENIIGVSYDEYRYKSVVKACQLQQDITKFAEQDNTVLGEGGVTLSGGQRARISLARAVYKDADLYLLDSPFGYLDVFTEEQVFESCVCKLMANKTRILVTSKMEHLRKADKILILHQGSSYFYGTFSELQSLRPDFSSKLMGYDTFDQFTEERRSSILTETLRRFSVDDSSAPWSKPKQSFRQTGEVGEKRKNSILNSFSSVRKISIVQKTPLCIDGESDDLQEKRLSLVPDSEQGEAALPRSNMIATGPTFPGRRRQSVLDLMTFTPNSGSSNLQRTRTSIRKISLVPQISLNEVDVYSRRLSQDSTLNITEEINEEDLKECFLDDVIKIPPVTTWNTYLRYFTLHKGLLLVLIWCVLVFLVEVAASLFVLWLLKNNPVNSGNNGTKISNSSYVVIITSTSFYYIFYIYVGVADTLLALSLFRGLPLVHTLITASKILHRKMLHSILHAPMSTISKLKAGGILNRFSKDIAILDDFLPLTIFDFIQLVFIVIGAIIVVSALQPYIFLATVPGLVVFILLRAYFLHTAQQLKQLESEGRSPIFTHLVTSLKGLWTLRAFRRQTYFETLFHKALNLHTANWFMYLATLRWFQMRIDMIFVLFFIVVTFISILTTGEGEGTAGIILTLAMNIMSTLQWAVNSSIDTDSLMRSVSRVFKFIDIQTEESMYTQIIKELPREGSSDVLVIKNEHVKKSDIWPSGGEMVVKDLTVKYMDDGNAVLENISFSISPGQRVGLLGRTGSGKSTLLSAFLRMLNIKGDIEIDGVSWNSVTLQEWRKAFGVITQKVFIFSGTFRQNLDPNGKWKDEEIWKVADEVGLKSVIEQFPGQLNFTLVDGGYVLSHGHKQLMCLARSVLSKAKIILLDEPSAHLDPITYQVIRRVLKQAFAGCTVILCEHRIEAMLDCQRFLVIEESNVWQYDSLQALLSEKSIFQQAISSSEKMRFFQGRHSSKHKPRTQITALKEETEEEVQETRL
Description: Driven by the positive outcome of the cell lines (immortalized and primary nasal cell) experiments, we next investigated the possibility that IE1 could rescue the CFTR protein and function as well as re-establish the autophagy pathway in CF mice model. To test this hypothesis, we used F508del-Cftr homozygous (CftrF508del\F508del) mice and control mice (Cftr WT). CftrF508del mice were administered intraperitoneally (i.p.) for 5 d with cysteamine or different concentrations of IE1 (FIG. 7). […] Next, CftrF508del mice were administered intraperitoneally (i.p.) for 5 d with cysteamine or with 3 different concentrations of IE1 (0.05M, 0.025M or 0.0125M) followed by 10 d or 20 d of vehicle only (FIG. 9).
CF mice homozygous for the delF508-CFTR mutation (abbreviated CftrF508del) in the 129/FVB outbred background (CftrtmlEUR, F508del, FVB/129) were obtained from Erasmus Medical Center Rotterdam, The Netherlands (CF coordinated action program EU FP6 LSHM-CT-2005-018932). These studies and procedures were approved by the local Ethics Committee for Animal Welfare (IACUC No 713). Young adult CF mice and their wild-type (wt) littermates were housed in static isolator cages at the animal care specific pathogen-free facility of Charles River (Calco, Italy). […]

Sequence of F508delCFTR (P13569 with tags, fused parts or gaps DEL508-508): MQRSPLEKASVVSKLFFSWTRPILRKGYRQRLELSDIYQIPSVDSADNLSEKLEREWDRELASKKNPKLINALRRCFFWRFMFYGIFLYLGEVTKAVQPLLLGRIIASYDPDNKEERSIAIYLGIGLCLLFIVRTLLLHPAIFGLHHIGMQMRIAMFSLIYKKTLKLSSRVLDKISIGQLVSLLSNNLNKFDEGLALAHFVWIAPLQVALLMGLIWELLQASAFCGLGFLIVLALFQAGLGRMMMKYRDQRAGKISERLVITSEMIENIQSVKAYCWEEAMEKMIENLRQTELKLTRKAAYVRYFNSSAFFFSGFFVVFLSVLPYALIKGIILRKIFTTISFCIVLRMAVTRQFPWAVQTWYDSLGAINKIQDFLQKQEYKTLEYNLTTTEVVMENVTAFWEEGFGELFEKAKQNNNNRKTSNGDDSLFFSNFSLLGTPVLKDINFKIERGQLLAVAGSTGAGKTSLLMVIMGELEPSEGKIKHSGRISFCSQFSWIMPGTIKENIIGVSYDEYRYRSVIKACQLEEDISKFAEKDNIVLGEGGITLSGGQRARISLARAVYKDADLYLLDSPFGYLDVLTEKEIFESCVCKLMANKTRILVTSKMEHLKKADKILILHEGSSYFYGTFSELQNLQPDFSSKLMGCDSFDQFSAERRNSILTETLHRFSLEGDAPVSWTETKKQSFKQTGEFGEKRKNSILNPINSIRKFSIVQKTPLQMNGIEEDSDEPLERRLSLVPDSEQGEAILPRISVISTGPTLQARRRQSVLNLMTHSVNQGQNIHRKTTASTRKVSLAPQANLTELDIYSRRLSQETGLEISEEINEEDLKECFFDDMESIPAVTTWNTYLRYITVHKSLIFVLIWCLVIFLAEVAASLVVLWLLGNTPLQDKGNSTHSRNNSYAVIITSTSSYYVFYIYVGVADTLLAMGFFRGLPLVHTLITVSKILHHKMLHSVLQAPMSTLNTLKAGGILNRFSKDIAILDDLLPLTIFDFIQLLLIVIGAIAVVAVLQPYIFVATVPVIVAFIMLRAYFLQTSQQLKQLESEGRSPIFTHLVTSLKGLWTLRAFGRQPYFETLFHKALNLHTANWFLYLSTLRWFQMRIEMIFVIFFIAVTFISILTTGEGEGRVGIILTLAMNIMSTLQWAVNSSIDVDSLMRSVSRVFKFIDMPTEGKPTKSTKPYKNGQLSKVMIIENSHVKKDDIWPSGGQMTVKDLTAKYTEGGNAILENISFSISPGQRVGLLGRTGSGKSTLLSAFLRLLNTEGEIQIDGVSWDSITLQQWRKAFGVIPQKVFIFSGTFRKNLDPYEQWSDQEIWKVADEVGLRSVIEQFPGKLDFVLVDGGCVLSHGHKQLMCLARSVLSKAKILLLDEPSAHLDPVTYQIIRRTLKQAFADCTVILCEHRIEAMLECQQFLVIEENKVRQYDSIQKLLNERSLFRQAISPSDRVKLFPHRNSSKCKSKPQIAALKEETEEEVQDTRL

Concentration lower than cysteamine for equal restoration of CFTR function (F508delCFTR; 0.1 μM vs 250 μM): more than 2500 fold
% Function vs 16HBE (F508delCFTR; 0.1 μM, CFBE41o- transfected with F508delCFTR): 72%
CFTR function after wash out with EGCG added (F508delCFTR; 48 h after wash out, epigallocatechin gallate added, CFBE cells): effect is preserved
CFTR function after wash out (F508delCFTR; 48 h after wash out, CFBE cells): loses its efficacy
CFTR function after wash out (F508delCFTR; up to 24 h after wash out, CFBE cells): able to maintain CFTR function
Ability to inhibit the PDI activity of TG2 (TG2): confirmed
Sustaining CFTR function after wash out, compared with cysteamine (CFTR; i.p. 5 d at 0.05M, 0.025M or 0.0125M, then 20 d of vehicle only): more effective than cysteamine
Rescue of CFTR function (Ussing chamber, small intestinal tissues) (CFTR; i.p. for 5 d, IE1 concentration 0.05 to 0.00125): highly effective
SMILES: NCCCS [IE1, 3-aminopropane-1-thiol]
